Key:
[1] = system: monocytes from PBMC differentiated into M2 macrophage; assay: M2 macrophage differentiation assay; format: cell-based, human
From the text: The purpose of this study was to evaluate the effects of lobeglitazone and other thiazolidinediones on M2 macrophage differentiation. The test articles and vehicles used in this study were lobeglitazone sulfate, pioglitazone HCl, and rosiglitazone.
M2 macrophage differentiation assay timeline was as follows in Table 10.
• (1) Isolate monocytes from PBMC using StemCell® monocyte isolation kit • (2) Count cell and adjust the cell density to 0.5×10^6 cells/ml with fresh complete differentiation medium. Add 5 μL M-CSF stock ([…]) to each 5 ml cell mixture. • (3) Seed isolated monocyte 100 μL per well on 96-well plate. • (4) Add test articles as the plate map using D300e (final concentration in μM). • (5) Differentiate the monocyte to macrophage in the presence of M-CSF to […] for 4 days. • (6) On day 4, add additional medium containing M-CSF. • (7) Add test compounds using D300e (final volume=[…]). • (8) On day 6, add IL-4 at 5× final concentration (IL-4 stock 0.1 mg/ml: dilute 10 μl stock into 10 ml medium for 100 ng/ml. Add 50 μl 100 ng/ml IL-4 to each well containing 200 μL medium to reach 20 ng/ml). • (9) On day 8, spin down the plates at 300×g for 5 min and collect the supernatant for cytokine quantification using MSD. • (10) M2 associated macrophage cytokines of interest are listed below in Table 12.
• (11) Collect cells for flow analysis of viability/CD11c/CD163/CD206.
Flow cytometry and surface marker CD163, CD11c, and CD206 were applied to characterize M2 repolarization. No stain and all stain with surface marker antibody to confirm the optimization of gating strategy.

[2] = system: colon of DSS-induced IBD model mice; assay: Colon histology (H&E score, PAS goblet cells) in the DSS-induced IBD model; format: in vivo; conditions: vs model
Method: H&E staining: Colon sections were cut at 4 μm in thickness, dried in an oven for 1 hour and stained with H&E solution with our standard protocol. Briefly, the sections were stained with hematoxylin solution for 90 seconds. Then stain in eosin solution for 30 seconds. Then dehydrated and coverslipped for the subsequent image analysis. H&E stained images was scanned using LEICA Aperio® GT450. The severity of inflammatory cell infiltration and tissue damage were semi-quantitatively evaluated according to pathology score criteria in Table 7.
PAS staining: Colon sections were cut at 4 μm in thickness, dried in an oven for 1 hour and stained with PAS kit (Gefan #M035) with our standard protocol. Briefly, the sections were stained with periodic acid working solution for 8 minutes. Then wash with distilled water for 5 minutes, three times. Stain in Schiff solution for 10 minutes. Transform to distilled water for 5 minutes, three times. Then dehydrated and coverslipped for the subsequent image analysis.
The total length of the colon was measured by a ruler and then was divided into 3 segments, 100 microns in the middle of each segment was taken out for goblet cell calculation. In each 100 microns of colon tissue, the number of goblet cells was calculated, then the average number of goblet cells from three parts was used for next analysis.
(§1) In vivo animal data were presented as mean±SEM. Statistical analysis was performed by one-way ANOVA followed by Dunnett's multiple comparison. […] The difference was considered significance when p<0.05.

[3] = system: DSS-induced IBD model in female Balb/c mice; assay: DSS-induced IBD model: body weight, DAI score, colon length and weight; format: in vivo; conditions: for DAI score: lobeglitazone groups (0.36, 1.20, 3.61 mg/kg PO QD)
Method: The purpose of this study was to test the efficacy of compound lobeglitazone in the DSS-induced IBD model in female Balb/c mice following oral administration. The study was conducted at an AAALAC accredited facility, and all animal study procedures were approved by the Institutional Animal Care and Use Committee (IACUC).
Precise amount of lobeglitazone sulfate (lot: EW34258-13-P1; purity: 97.6%) was weighted out into a clean tube, 0.5% CMC was added and vortexed fully, then sonicated 2-3 minutes to get an even suspension. The concentration of the solution was 0.361 mg/ml, 0.120 mg/mL, and 0.036 mg/mL. The dosing solution was freshly made daily until the end of the study. The compound was orally (PO), 10 mL/kg daily dosed for 10 days.
Totally 125.82 mg cyclosporin A (CSA, purity 98%) was weighed out into a clean tube, 2.055 mL castor oil was added firstly, then 39.046 mL […] (with 0.1% tween80) was added, vortexed fully, then sonicated 10 min to get a clear solution. The concentration of the solution was 3 mg/mL. The compound was PO, 10 mL/kg daily dosed for 10 days.
5% DSS preparation: […] DSS powder was weighted out into a clean bottle, 1 L Milli Q water was added subsequently, the solution was stirred until it was clear. Then 5% DSS was transferred to water bottle of the animal. 5% DSS was freshly made daily until the end of the study.
A total of 50 (7 weeks old) female Balb/c were purchased from Beijing Vital River Laboratory Animal Technology Co., Ltd. Animals were acclimatized for 1 week prior to the experiment. All the in vivo experimental procedures were approved by the institutional animal care and use committee (IACUC). All euthanasia was performed using carbon dioxide inhalation and all efforts were made to minimize animal suffering.
At the beginning of the study, randomization was performed based on body weight. All animals were randomly assigned to one of six groups (Table 1). The study schedule is described in FIG. 1.
DAI score was calculated by the sum of weight loss score, stool consistency score, and occult-gross bleeding score. Body weight loss was calculated by comparison with the body weight on day 1. Feces samples were collected from each individual animal, and stool consistency and occult-gross bleeding were evaluated according to Table 2. Stool Consistency was evaluated by the appearance of the feces. Occult-gross bleeding was evaluated using Fecal Occult Blood test strips. Occult bleeding score of 1 will be assigned if light or dark purple color developed within 20 seconds and longer than 15 seconds. Occult bleeding score of 2 was assigned if light or dark purple color developed within 15 seconds. Occult-gross bleeding score of 3 would be assigned if blood was visible in the feces.
Animals were euthanized by CO2 at the end of study. Colon length and colon weight (cecum is not included) were recorded, and macroscopic changes were scored based on Table 2. The colon was cleaned using saline, and all feces were removed before weight measurement. The middle part of colon was collected in cassette and fixed in 10% neutral buffered formalin (NBF) for H&E and PAS staining. For left colon, mucosal from colon surface was removed and then snap frozen in liquid nitrogen and store at −80° C. for QT-PCR analysis of TNF-α, IL-10, CCL2, and IL-1β. QT-PCR primers were purchased from Sangon Biotech Co., Ltd.
as §1

[4] = lobeglitazone groups (0.36, 1.20, 3.61 mg/kg PO QD 10 days), vs control group

COc1ccc(Oc2cc(N(C)CCOc3ccc(CC4SC(=O)NC4=O)cc3)ncn2)cc1 (centres unmarked) [lobeglitazone, 5-(4-(2-((6-(4-Methoxyphenoxy)pyrimidin-4-yl)(methyl)amino)ethoxy)benzyl)thiazolidine-2,4-dione]
concentration at which M2 repolarization was promoted (M2 macrophage surface markers, flow cytometry) ([1]; CD163, CD11c, CD206, donor 1 and 2): ~0.025 UM | Eotaxin-2 expression ([1]; cytokine analysis (MSD), donor 1): remarkable promotion | MDC expression ([1]; cytokine analysis (MSD), donor 3): remarkable promotion | H&E total score (inflammation/tissue damage) ([2]; 0.36 mg/kg PO QD 10 days): led to decrease | number of goblet cells (PAS staining) ([2]; 0.36 mg/kg PO QD 10 days): trended to increase | H&E total score (inflammation/tissue damage) ([2]; 1.20 mg/kg PO QD 10 days): led to decrease | number of goblet cells (PAS staining) ([2]; 1.20 mg/kg PO QD 10 days): trended to increase | H&E total score (inflammation/tissue damage) ([2]; 3.61 mg/kg PO QD 10 days): led to decrease | number of goblet cells (PAS staining) ([2]; 3.61 mg/kg PO QD 10 days): did not change | body weight changes ([3]; 0.36 mg/kg PO QD, vs control group): no significant body weight changes | body weight changes ([3]; 1.20 mg/kg PO QD, vs control group): no significant body weight changes | body weight changes ([3]; 3.61 mg/kg PO QD, day 2, vs control (no drug) group): significantly reduced | colon length [3, 4]: did not significantly increase | colon length/weight ratio [3, 4]: did not significantly decrease | colon weight [3, 4]: did not significantly change | DAI score ([3]; vs control group): did not significantly reduce | DAI score ([3]; vs control group, listed as Lobeglitazone): did not significantly decrease
